# From patent US5470849A, “γ-turn peptidomimetics as fibrinogen antagonists” (SmithKline Beecham Corp., priority 1993, dated 1995)
# pIC50: −log10 of the molar value.
# Key:
# [1] = Stability of the peptide to plasma proteases in platelet-rich plasma (3 h incubation prior to agonist); format: in vitro ADME, dog; conditions: up to 3 h
# Description: (§1) Blood was collected (citrated to prevent coagulation) from, naive, adult mongrel dogs. Platelet rich plasma, PRP, was prepared by centrifugation at 150×g for 10 min at room temperature. Washed platelets were prepared by centrifuging PRP at 800×g for 10 min. The cell pellet thus obtained was washed twice in Tyrode's buffer (pH 6.5) without Ca^++ and resuspended in Tyrode's buffer (pH 7.4) containing 1.8 mM Ca^++ at 3×10^5 cells/mL. Peptides were added 3 min. prior to the agonist in all assays of platelet aggregation. Final agonist concentrations were 0.1 unit/mL thrombin and […] (Sigma). Aggregation was monitored in a Chrono-Log Lumi-Aggregometer. Light transmittance 5 min after addition of the agonist was used to calculate percent aggregation according to the formula % aggregation =[(90-CR)[…]]×100, where CR is the chart reading, 90 is the baseline, and 10 is the PRP blank reading. IC50 's were determined by plotting [% inhibition of aggregation] vs. [concentration of peptide]. Peptides were assayed at 200 μM and diluted sequentially by a factor of 2 to establish a suitable dose response curve.
# To assess the stability of the peptide to plasma proteases, the peptides were incubated for 3 h (rather than 3 min) in the PRP prior to addition of the agonist.
# dog platelets = test: Inhibition of platelet aggregation (dog platelets, agonist-induced, Chrono-Log Lumi-Aggregometer); format: cell-based; conditions: Canis lupus familiaris, stimulated by ADP, between about
# Description: as §1
pIC50 (dog platelets),SMILES,stability in platelet-rich plasma [1]
5.82 to 6.30,"CC(=O)N(C)[C@@H](CCCNC(=N)N)C(=O)NCC1=CC(CC(=O)O)C(=O)N(c2ccccc2)CC1 (stereo partly shown) [Example 2, 1-phenyl-2-oxo-3-carboxymethyl-5-[acetyl-(N-methylarginyl)-aminomethyl]-2,3,6,7-tetrahydro-1H-azepine]",stable in platelet-rich plasma for up to 3 h
5.82 to 6.30,"CN(C(=O)c1ccccc1)[C@@H](CCCNC(=N)N)C(=O)NCC1=CC(CC(=O)O)C(=O)N(c2ccccc2)CC1 (stereo partly shown) [Example 1, 1-phenyl-2-oxo-3-carboxymethyl-5-[(N-benzoyl-N-methyl-arginylamino)methyl]-2,3,6,7-tetrahydro-1H-azepine]",stable in platelet-rich plasma for up to 3 h
